Assay results from patent US20040053966A1, “Chemical derivatives and their application as antitelomerase agent” (Aventis Pharms S.A., priority 1999, published 2004).
Where a name gives a salt, the structure may show the parent alone. Read-outs that look alike come from different tables or passages of the source.

Assays:
[1] = tested on: G-quadruplex of oligonucleotide GGGTTAGGGTTAGGGTTAGGG (3.5 repeats of the human telomeric motif); assay: G-quadruplex stabilizing activity, fluorescence Tm (FAM+DABCYL oligonucleotide); format: binding; conditions: test product 1 μM, oligonucleotide 0.2 μM, 0.1 M LiCl, 10 mM cacodylate pH 7.6; reference without product 44° C.
Source text: The G-quadruplex stabilizing activity may be determined by a method using the formation of a complex with fluorescein of which the experimental protocol is described below. Oligonucleotides […] The oligonucleotide FAM+DABCYL carries the catalogue reference OL-0371-0802. It has the sequence: […] The fluorescein is attached to the 5' end, the DABCYL to the 3' end, by the chemical arms described by Eurogentec. The concentration of the samples is checked by spectrophotometry, recording the absorbance spectrum between 220 and 700 nm and using the molar extinction coefficient provided by the supplier. Buffers All the experiments were carried out in a 10 mM sodium cacodylate buffer pH 7.6 containing 0.1 M lithium chloride (or sodium chloride). The absence of fluorescent contamination in the buffer was checked beforehand. The fluorescent oligonucleotide is added at the final concentration of 0.2 μM. Study of Fluorescence All the measurements of fluorescence were carried out on a Spex Fluorolog DMlB apparatus, using an excitation line width of 1.8 nm and an emission line width of 4.5 nm. The samples are placed in a microquartz cuvette of 0.2×1 cm. The temperature of the sample is controlled by an external water bath. The oligonucleotide alone was analysed at 20, 30, 40, 50, 60, 70 and 80° C. The emission spectra are recorded using an excitation wavelength of 470 nm. The excitation spectra are recorded using either 515 nm or 588 nm as emission wavelength. The spectra are corrected for the response of the instrument by reference curves. A high extinction (80-90%) of the fluorescence of fluorescein at room temperature is observed, in agreement with an intramolecular folding of the oligonucleotide at 20° C. in the form of a G-quadruplex, which induces juxtaposition of its [NT] ends which are respectively linked to fluorescein and to DABCYL. This juxtaposition causes an already-described phenomenon of extinction of fluorescence which is used for “molecular beacons”. Fluorescence Tm: […] The samples are then allowed to incubate for at least 1 hour at 20° C. before each measurement. The use of longer incubation times (up to 24 hours) has no influence on the result obtained. Each experiment allows the measurement of only one sample. The latter is first incubated at an initial temperature of 20° C., heated to 80° C. over 38 minutes, left for 5 minutes at 80° C. and then cooled to 20° C. over 62 minutes. During this time, the fluorescence is measured simultaneously at two emission wavelengths (515 nm and 588 nm) using 470 nm as excitation wavelength. A measurement is carried out every 30 seconds. The temperature of the water bath is recorded in parallel, and the fluorescence profile as a function of the temperature is reconstituted from these values. The fluorescence profiles are then normalized between 20° C. and 80° C., and the temperature for which the intensity of emission at 515 nm is the mean of those at high and low temperature is called Tm. Under these conditions, the Tm of the reference sample without addition of product is 44° C. in a lithium chloride buffer. This temperature is increased to more than 55° C. in a sodium chloride buffer. The addition of a G-quadruplex-stabilizing compound induces an increase in the Tm. This increase is judged to be significant if it is greater than […].

[2] = tested on: human telomerase (HL60 cell extract); assay: Antitelomerase activity, TRAP (extension of oligonucleotide TS and PCR amplification); format: biochemical; conditions: telomerase extract from HL60 cells
[3] = tested on: A549 cells; assay: Cytotoxic activity on human tumour line A549 (neutral red); format: cell-based; conditions: 96 hours incubation, read-out: Cytotox. A549 IC50
Method: The Cytotoxic Biological Activity on Human Tumour Lines is Determined According to the Following Experimental Protocol:
The cells at the exponential growth phase are trypsinized, washed in 1× PBS and are inoculated in 96-well microplates (Costar) in an amount of 4×10^4 cells/ml for A549 and of 1.5×10^4 cells/ml (0.2 ml/well) and then incubated for 96 hours in the presence of variable concentrations of product to be studied (10, 1, 0.1 and 0.01 μg/ml, each point in quadruplicate). 16 hours before the end of the incubation, 0.02% final of neutral red is added to each well. At the end of the incubation, the cells are washed with 1× PBS and lysed with 1% sodium lauryl sulphate. The cellular incorporation of the dye, which reflects cellular growth, is evaluated by spectrophotometry at a wavelength of 540 nm for each sample with the aid of a Dynatech MR5000 reading apparatus.
(compound value−blank value/cell control value−blank value)×100.

Compound | IC50 [2] | FLUORESCENCE Tm [1] | IC50 ([3]; Homo sapiens, A549, 96 h) | G4 Tm [1] | IC50 [3]
C[n+]1cccc2cc(Nc3nc(N)nc(Nc4ccc5c(ccc[n+]5C)c4)n3)ccc21 [Example 5, 2-amino-bis-4,6-[(1′-methyl-6′-quinolinio)amino]triazine dichloride] | 0.13 µM | 57° ° C. | – | – | –
CNc1nc(Nc2ccc3nc(C)cc(N)c3c2)nc(Nc2ccc3nc(C)cc(N)c3c2)n1 [Example 4, 2-methylamino-bis-4,6-[(4′-amino-6′-quinaldinyl)amino]triazine trihydrochloride] | 0.51 µM | 48° ° C. | 3.1 µM | – | –
CSc1nc(Nc2ccc3nc(C)cc(N)c3c2)nc(Nc2ccnc3ccccc23)n1 [Example 18-8] | 3.4 µM | – | – | 49 °C | –
CSc1nc(Nc2ccc3nc[nH]c3c2)nc(Nc2ccc3nc(C)cc(N)c3c2)n1 [Example 18-10] | 3.3 µM | – | 10 µM | 49 °C | –
CNc1nc(Nc2ccc3nc(C)cc(NC)c3c2)nc(Nc2ccc3nc(C)cc(NC)c3c2)n1 [Example 6, 2-methylamino-bis-4,6-[(4′-methylamino-6′-quinaldinyl)amino]triazine dichloride trihydrochloride] | 0.3 µM | 44° ° C. | 1.9 µM | – | –
CCN(CC)c1nc(Nc2ccc3ncccc3c2)nc(Nc2ccc3nc(C)cc(N)c3c2)n1 [Example 19-1] | 1 µM | – | 1.5 µM | 58 °C | –
Cc1cc(N)c2cc(Nc3nc(N)nc(Nc4ccc5c(c4)c(N)cc(C)[n+]5C)n3)ccc2[n+]1C [Example 1, 2-amino-bis-4,6-[(1′-methyl-4′-amino-6′-quinaldinio)amino]triazine dichloride] | 0.25 µM | – | – | – | –
C[n+]1ccc(NCCCCCNc2cc[n+](C)c3cc(Cl)ccc23)c2ccc(Cl)cc21 [Example 14, N^1,N^5-bis (7-chloro-1-methyl4-quinolinio)pentane-1,5-diamine diiodide] | – | – | 6.5 µM | – | –
Cc1cc(N)c2cc(Nc3ccnc(Nc4ccc5nc(C)cc(N)c5c4)n3)ccc2n1.Cl.Cl.Cl.O.O.O.O.O [Example 15, bis-2,4-[(4′-amino-6′-quinaldinyl)amino]pyrimidine trihydrochloride pentahydrate] | 0.49 µM | 53° ° C. | – | – | 8.7 µM
CSc1nc(Nc2ccc3nc(C)cc(N)c3c2)nc(N(C)c2ccc3ncccc3c2)n1 [Example 18-1] | 3.5 µM | – | – | 47 °C | –
CC[n+]1c(C)cc(N)c2cc(Nc3nc(N)nc(Nc4ccc5c(c4)c(N)cc(C)[n+]5CC)n3)ccc21 [Example 2, 2-amino-bis-4,6-[(1′-ethyl-4′-amino-6′-quinaldinio)amino]triazine dichloride] | 0.056 µM | 48° ° C. | 4.7 µM | – | –
C[n+]1c2ccccc2c(N)c2cc(Nc3nc(N)nc(Nc4ccc5c(c4)c(N)c4ccccc4[n+]5C)n3)ccc21 [Example 7, 2-amino-bis-4,6-[(9′-amino-10′-methyl-2′-acridinio)amino]triazine dichloride hydrochloride] | 0.89 µM | 55° ° C. | 4.9 µM | – | –
N=C(N)c1ccc(Nc2nc(N)nc(Nc3ccc(C(=N)N)cc3)n2)cc1 [Example 9, 2-Amino-bis-4,6-(p-amidinoanilino)triazine trihydrochloride] | 0.74 µM | – | 0.53 µM | – | –
CSc1nc(Nc2ccc3c(c2)c(N)cc(C)[n+]3C)nc(Nc2ccc3c(c2)c(N)cc(C)[n+]3C)n1 [Example 10, 2-methylthio-bis-4,6-[(1′-methyl-4′-amino-6′-quinaldinio)amino]triazine dichloride] | 0.24 µM | – | 3.6 µM | – | –
Cc1cc(N)c2cc(NC(=N)NC(=N)Nc3ccc4nc(C)cc(N)c4c3)ccc2n1 [Example 16, 1,5-(4′-amino-6′-quinaldinyl)-biguanide trihydrochloride dihydrate] | – | 52° ° C. | 5.8 µM | – | –
CSc1nc(Nc2ccc3nc(C)cc(N(C)C)c3c2)nc(Nc2ccc3nc(C)cc(N(C)C)c3c2)n1 [Example 12, 2-methylthio-bis-4,6-[(4′-dimethylamino-6′-quinaldinyl)amino]triazine hydrate] | 0.041 µM | 70° ° C. | – | – | –
CSc1nc(Nc2ccc3c(c2)c(=N)cc(C)n3C)nc(Nc2ccc3c(c2)c(=N)cc(C)n3C)n1 [Example 17-2] | 0.95 µM | – | 6.1 µM | – | –
Cc1cc(N(C)C)c2cc(Nc3nc(Cl)nc(Nc4ccc5nc(C)cc(N(C)C)c5c4)n3)ccc2n1 [Example 11, 2-chloro-bis-4,6-[(4′-dimethylamino-6′-quinaldinyl)amino]triazine dihydrochloride dihydrate] | 3 µM | 57° ° C. | 5.14 µM | – | –
Cc1cc(N)c2cc(Nc3nc(Nc4ccc5c(c4)c(N)cc(C)[n+]5C)nc(N(C)C)n3)ccc2[n+]1C [Example 3, 2-dimethylamino-bis-4,6-[(1′-methyl-4′-amino-6′-quinaldinio)amino]triazine dichloride] | 0.22 µM | 52° ° C. | – | – | –
Cc1cc(N)c2cc(NC(=O)Nc3ccc4nc(C)cc(N)c4c3)ccc2n1 [Example 13, N,N′-(4-amino-6-quinaldinyl)urea dihydrochloride] | 0.72 µM | – | – | – | –
Cc1cc(N)c2cc(Nc3nc(N)nc(Nc4ccc5nc(C)cc(N)c5c4)n3)ccc2n1 [Example 8, 2-amino-bis-4,6-[(4′-amino-6′-quinaldinyl)amino]triazine trihydrochloride] | 0.051 µM | – | 9.1 µM | – | –
CSc1nc(Nc2ccc3ncccc3c2)nc(Nc2ccc3nc(C)cc(N)c3c2)n1 [Example 18-5] | 3.4 µM | – | – | 47 °C | –

Continued, in another order:

IC50 [2] | Compound | FLUORESCENCE Tm [1] | IC50 ([3]; Homo sapiens, A549, 96 h) | G4 Tm [1] | IC50 [3]
3.4 µM | CSc1nc(Nc2ccc3nc(C)ccc3c2)nc(Nc2ccc3nc(C)cc(N)c3c2)n1 [Example 18-13] | – | – | – | –
0.34 µM | CSc1nc(Nc2ccc3nc(C)cc(N)c3c2)nc(Nc2ccc3nc(C)cc(N(C)C)c3c2)n1 [Example 18-3] | – | 10 µM | 57 °C | –
0.049 µM | CSc1nc(Nc2ccc3nc(C)cc(N)c3c2)nc(Nc2ccc3nc(C)cc(N)c3c2)n1 [Example 17-1] | – | 1.6 µM | 57 °C | –
2.3 µM | COc1cc(C)nc2ccc(Nc3nc(Nc4ccc5nc(C)cc(N)c5c4)nc(SC)n3)cc12 [Example 18-2] | – | – | 49 °C | –
2.8 µM | CCc1cc(Nc2nc(Nc3ccc4nc(C)cc(N)c4c3)nc(SC)n2)ccn1 [Example 18-12] | – | – | – | –
2.5 µM | CCN(CC)c1nc(Nc2ccncc2)nc(Nc2ccc3nc(C)cc(N)c3c2)n1 [Example 19-2] | – | – | 53 °C | –
3.3 µM | CCn1c2ccccc2c2cc(Nc3nc(Nc4ccc5nc(C)cc(N)c5c4)nc(SC)n3)ccc21 [Example 18-11] | – | 1.3 µM | 48 °C | –
2.2 µM | CSc1nc(Nc2ccc3nc(C)cc(C)c3c2)nc(Nc2ccc3nc(C)cc(N)c3c2)n1 [Example 18-4] | – | – | 50 °C | –
3.9 µM | COc1cc(C)nc2ccc(Nc3nc(Nc4ccc5nc(C)cc(OC)c5c4)nc(SC)n3)cc12 [Example 17-3] | – | 3.2 µM | – | –
